{"source": "patent US10835533B2", "about": "“1 -((3S,4R)-4-(3-fluorophenyl)-1-(2-methoxyethyl)pyrrolidin-3-yl)-3-(4-methyl-3-(2-methylpyrimidin-5-yl)-1-phenyl-1H-pyrazol-5-yl)urea as a TrkA kinase inhibitor” (Array BioPharma Inc., priority 2014, dated 2020)", "assay_in_all_cases": "KinaseProfiler kinase profiling", "format_in_all_cases": "biochemical", "conditions_in_all_cases": "10 μM, ATP near Km", "key": {"[1]": {"biological_target": "T1, IR (Homo sapiens, UniProt P06213)", "T1 construct": "purchased Millipore, Inc. (KinaseProfiler service)", "procedure,_shortened": "(§1)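 ATP near Km for the individual kinase; inhibitor fixed at 10 μM. Figures are POC averages from duplicate determinations.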"}, "[2]": {"biological_target": "T2, NEK11 (Homo sapiens, UniProt Q8NG66)", "T2 construct": "purchased Millipore, Inc. (KinaseProfiler service)", "procedure,_shortened": "as §1"}, "[3]": {"biological_target": "T3, ROCK-II (Homo sapiens, UniProt O75116)", "T3 construct": "purchased Millipore, Inc. (KinaseProfiler service)", "procedure,_shortened": "as §1"}, "[4]": {"biological_target": "T4, GRK7 (Homo sapiens, UniProt Q8WTQ7)", "T4 construct": "purchased Millipore, Inc. (KinaseProfiler service)", "T4 sequence (Q8WTQ7 whole entry)": "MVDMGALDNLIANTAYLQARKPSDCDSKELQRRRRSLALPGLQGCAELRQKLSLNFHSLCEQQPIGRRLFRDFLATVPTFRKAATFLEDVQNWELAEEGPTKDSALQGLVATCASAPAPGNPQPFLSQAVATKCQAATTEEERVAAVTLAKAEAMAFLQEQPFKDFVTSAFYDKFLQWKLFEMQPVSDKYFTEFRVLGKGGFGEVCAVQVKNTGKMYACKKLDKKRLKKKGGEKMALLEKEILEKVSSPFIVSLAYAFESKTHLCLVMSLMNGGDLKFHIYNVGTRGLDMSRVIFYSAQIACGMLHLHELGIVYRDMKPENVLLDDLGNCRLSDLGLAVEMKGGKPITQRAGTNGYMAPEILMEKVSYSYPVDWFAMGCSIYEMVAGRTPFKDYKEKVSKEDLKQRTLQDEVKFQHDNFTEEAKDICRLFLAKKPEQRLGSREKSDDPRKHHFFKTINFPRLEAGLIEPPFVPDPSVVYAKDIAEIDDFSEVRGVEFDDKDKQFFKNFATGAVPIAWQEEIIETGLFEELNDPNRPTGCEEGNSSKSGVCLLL", "procedure,_shortened": "as §1"}, "[5]": {"biological_target": "T5, CDK7/cyclinH/MAT1 (Homo sapiens, UniProt P50613)", "T5 construct": "purchased Millipore, Inc. (KinaseProfiler service)", "T5 sequence (P50613 whole entry)": "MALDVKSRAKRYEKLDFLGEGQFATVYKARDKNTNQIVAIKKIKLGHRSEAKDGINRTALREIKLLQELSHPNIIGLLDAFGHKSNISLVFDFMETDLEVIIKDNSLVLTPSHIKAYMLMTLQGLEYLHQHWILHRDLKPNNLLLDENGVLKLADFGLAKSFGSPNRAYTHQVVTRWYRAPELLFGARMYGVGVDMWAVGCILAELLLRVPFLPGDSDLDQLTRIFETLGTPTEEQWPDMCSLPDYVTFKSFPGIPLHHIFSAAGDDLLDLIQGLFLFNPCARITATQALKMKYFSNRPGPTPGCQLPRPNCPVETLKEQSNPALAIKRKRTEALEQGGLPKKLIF", "T5 sequence (P51946 whole entry partner)": "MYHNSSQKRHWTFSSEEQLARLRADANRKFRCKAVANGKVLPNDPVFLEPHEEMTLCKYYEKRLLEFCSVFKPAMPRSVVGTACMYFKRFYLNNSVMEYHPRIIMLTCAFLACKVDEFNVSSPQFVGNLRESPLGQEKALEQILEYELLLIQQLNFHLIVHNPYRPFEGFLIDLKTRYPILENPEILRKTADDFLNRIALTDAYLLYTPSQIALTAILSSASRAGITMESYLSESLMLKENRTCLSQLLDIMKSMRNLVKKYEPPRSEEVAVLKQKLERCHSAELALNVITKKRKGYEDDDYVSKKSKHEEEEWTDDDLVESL", "T5 sequence (P51948 whole entry partner)": "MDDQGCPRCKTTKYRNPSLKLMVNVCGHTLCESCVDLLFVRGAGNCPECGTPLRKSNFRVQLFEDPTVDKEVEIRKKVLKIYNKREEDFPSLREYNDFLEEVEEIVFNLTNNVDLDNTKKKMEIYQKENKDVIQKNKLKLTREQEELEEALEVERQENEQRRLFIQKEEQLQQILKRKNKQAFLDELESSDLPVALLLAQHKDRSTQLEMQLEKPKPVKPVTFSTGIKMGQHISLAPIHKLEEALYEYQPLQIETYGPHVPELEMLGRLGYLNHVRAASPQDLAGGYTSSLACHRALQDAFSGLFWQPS", "procedure,_shortened": "as §1"}, "[6]": {"biological_target": "T6, TSSK1 (Homo sapiens, UniProt Q9BXA7)", "T6 construct": "purchased Millipore, Inc. (KinaseProfiler service)", "procedure,_shortened": "as §1"}, "[7]": {"biological_target": "T7, MSK1 (Homo sapiens, UniProt O75582)", "T7 construct": "purchased Millipore, Inc. (KinaseProfiler service)", "procedure,_shortened": "as §1"}, "[8]": {"biological_target": "T8, ALK4 (Homo sapiens, UniProt P36896)", "T8 construct": "purchased Millipore, Inc. (KinaseProfiler service)", "procedure,_shortened": "as §1"}, "[9]": {"biological_target": "T9, BLK (Homo sapiens, UniProt P51451)", "T9 construct": "purchased Millipore, Inc. (KinaseProfiler service)", "procedure,_shortened": "as §1"}, "[10]": {"biological_target": "T10, AKT1 (Homo sapiens, UniProt P31749)", "T10 construct": "purchased Millipore, Inc. (KinaseProfiler service)", "T10 sequence (P31749 whole entry)": "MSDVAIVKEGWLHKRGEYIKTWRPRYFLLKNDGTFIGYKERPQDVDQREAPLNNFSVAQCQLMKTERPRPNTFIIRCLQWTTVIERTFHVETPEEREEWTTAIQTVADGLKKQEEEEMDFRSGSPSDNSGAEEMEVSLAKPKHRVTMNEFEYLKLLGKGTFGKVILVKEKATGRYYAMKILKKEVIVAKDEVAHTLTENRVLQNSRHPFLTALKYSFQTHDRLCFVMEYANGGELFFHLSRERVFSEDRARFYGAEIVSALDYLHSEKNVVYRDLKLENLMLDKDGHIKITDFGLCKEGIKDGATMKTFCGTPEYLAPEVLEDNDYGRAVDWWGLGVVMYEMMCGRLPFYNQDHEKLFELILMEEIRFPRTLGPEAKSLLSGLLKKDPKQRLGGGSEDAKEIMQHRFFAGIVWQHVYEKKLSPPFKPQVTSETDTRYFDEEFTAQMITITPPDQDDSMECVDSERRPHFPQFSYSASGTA", "procedure,_shortened": "as §1"}, "[11]": {"biological_target": "T11, Haspin (Homo sapiens, UniProt Q8TF76)", "T11 construct": "purchased Millipore, Inc. (KinaseProfiler service)", "procedure,_shortened": "as §1"}, "[12]": {"biological_target": "T12, CLK3 (Homo sapiens, UniProt P49761)", "T12 construct": "purchased Millipore, Inc. (KinaseProfiler service)", "T12 sequence (P49761 whole entry)": "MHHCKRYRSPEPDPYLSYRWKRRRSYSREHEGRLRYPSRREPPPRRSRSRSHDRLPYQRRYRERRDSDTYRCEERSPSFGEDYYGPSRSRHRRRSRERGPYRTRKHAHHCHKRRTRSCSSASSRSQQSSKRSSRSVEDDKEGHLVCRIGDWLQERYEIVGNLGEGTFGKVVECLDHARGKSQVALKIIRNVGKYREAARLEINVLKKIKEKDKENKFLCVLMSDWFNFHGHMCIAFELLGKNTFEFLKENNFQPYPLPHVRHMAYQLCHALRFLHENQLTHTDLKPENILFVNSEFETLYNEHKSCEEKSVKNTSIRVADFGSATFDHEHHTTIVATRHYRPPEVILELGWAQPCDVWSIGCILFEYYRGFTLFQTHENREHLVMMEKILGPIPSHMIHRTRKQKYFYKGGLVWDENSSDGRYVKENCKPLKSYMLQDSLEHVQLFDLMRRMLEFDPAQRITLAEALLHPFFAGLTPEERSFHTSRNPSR", "procedure,_shortened": "as §1"}, "[13]": {"biological_target": "T13, PRK2 (Homo sapiens, UniProt Q16513)", "T13 construct": "purchased Millipore, Inc. (KinaseProfiler service)", "procedure,_shortened": "as §1"}, "[14]": {"biological_target": "T14, WNK3 (Homo sapiens, UniProt Q9BYP7)", "T14 construct": "purchased Millipore, Inc. (KinaseProfiler service)", "procedure,_shortened": "as §1"}, "[15]": {"biological_target": "T15, PrKX (Homo sapiens, UniProt P51817)", "T15 construct": "purchased Millipore, Inc. (KinaseProfiler service)", "procedure,_shortened": "as §1"}, "[16]": {"biological_target": "T16, DMPK (Homo sapiens, UniProt Q09013)", "T16 construct": "purchased Millipore, Inc. (KinaseProfiler service)", "procedure,_shortened": "as §1"}, "[17]": {"biological_target": "T17, JNK1alpha1 (Homo sapiens, UniProt P45983)", "T17 construct": "purchased Millipore, Inc. (KinaseProfiler service)", "procedure,_shortened": "as §1"}, "[18]": {"biological_target": "T18, DAPK1 (Homo sapiens, UniProt P53355)", "T18 construct": "purchased Millipore, Inc. (KinaseProfiler service)", "procedure,_shortened": "as §1"}, "[19]": {"biological_target": "T19, ULK2 (Homo sapiens, UniProt Q8IYT8)", "T19 construct": "purchased Millipore, Inc. (KinaseProfiler service)", "procedure,_shortened": "as §1"}, "[20]": {"biological_target": "T20, CLK2 (Homo sapiens, UniProt P49760)", "T20 construct": "purchased Millipore, Inc. (KinaseProfiler service)", "procedure,_shortened": "as §1"}, "[21]": {"biological_target": "T21, MAPKAP-K3 (Homo sapiens, UniProt Q16644)", "T21 construct": "purchased Millipore, Inc. (KinaseProfiler service)", "procedure,_shortened": "as §1"}, "[22]": {"biological_target": "T22, CAMK2d (Homo sapiens, UniProt Q13557)", "T22 construct": "purchased Millipore, Inc. (KinaseProfiler service)", "procedure,_shortened": "as §1"}, "[23]": {"biological_target": "T23, Lyn (Homo sapiens, UniProt P07948)", "T23 construct": "purchased Millipore, Inc. (KinaseProfiler service)", "procedure,_shortened": "as §1"}, "[24]": {"biological_target": "T24, AMPK(A1/B1/G1) (Homo sapiens, UniProt Q13131)", "T24 construct": "purchased Millipore, Inc. (KinaseProfiler service)", "procedure,_shortened": "as §1"}, "[25]": {"biological_target": "T25, Abl-P (Homo sapiens, UniProt P00519)", "T25 construct": "purchased Millipore, Inc. (KinaseProfiler service)", "T25 sequence (P00519 27-1130 limits assumed)": "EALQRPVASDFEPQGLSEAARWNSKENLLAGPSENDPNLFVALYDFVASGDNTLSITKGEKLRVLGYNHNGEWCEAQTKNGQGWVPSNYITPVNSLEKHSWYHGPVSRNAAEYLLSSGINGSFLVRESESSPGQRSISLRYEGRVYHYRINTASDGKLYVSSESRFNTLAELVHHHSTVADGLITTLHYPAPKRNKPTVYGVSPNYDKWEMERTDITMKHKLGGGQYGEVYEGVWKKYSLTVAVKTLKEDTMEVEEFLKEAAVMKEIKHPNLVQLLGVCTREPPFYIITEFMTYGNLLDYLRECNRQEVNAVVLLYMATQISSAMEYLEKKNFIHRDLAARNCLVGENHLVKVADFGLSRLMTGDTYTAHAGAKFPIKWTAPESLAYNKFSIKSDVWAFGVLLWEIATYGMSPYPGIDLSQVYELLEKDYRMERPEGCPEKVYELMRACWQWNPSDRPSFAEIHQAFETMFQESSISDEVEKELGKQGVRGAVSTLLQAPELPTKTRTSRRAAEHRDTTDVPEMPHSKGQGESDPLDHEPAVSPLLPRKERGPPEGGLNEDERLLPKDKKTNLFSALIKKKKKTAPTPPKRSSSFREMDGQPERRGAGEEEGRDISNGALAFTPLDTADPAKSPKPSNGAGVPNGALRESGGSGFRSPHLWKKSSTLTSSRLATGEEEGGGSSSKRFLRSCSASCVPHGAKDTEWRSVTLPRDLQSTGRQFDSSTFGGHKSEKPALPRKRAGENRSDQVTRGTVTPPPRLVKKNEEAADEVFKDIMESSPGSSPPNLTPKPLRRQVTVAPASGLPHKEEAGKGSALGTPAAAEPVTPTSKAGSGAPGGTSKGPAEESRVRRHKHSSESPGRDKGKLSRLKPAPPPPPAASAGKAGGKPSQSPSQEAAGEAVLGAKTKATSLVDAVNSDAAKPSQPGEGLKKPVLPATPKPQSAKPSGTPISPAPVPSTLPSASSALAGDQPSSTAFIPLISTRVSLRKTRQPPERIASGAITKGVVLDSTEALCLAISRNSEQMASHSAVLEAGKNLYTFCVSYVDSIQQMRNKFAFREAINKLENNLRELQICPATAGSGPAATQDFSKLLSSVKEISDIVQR", "procedure,_shortened": "as §1"}, "[26]": {"biological_target": "T26, GSK3beta (Homo sapiens, UniProt P49841)", "T26 construct": "purchased Millipore, Inc. (KinaseProfiler service)", "T26 sequence (P49841 whole entry)": "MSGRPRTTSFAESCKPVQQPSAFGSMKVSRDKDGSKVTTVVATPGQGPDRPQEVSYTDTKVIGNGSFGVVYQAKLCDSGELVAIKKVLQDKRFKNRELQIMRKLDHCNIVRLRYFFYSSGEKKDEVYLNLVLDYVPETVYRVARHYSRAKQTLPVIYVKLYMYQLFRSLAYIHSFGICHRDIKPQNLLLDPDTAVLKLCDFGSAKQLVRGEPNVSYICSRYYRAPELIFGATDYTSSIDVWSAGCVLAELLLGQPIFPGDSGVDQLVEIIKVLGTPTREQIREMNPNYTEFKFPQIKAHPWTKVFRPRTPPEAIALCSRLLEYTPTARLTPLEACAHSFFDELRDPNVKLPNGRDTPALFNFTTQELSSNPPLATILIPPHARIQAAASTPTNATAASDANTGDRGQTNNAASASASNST", "procedure,_shortened": "as §1"}, "[27]": {"biological_target": "T27, Abl2 (Homo sapiens, UniProt P42684)", "T27 construct": "purchased Millipore, Inc. (KinaseProfiler service)", "procedure,_shortened": "as §1"}, "[28]": {"biological_target": "T28, NEK2 (Homo sapiens, UniProt P51955)", "T28 construct": "purchased Millipore, Inc. (KinaseProfiler service)", "procedure,_shortened": "as §1"}, "[29]": {"biological_target": "T29, TAO3 (Homo sapiens, UniProt Q9H2K8)", "T29 construct": "purchased Millipore, Inc. (KinaseProfiler service)", "procedure,_shortened": "as §1"}, "[30]": {"biological_target": "T30, ITK (Homo sapiens, UniProt Q08881)", "T30 construct": "purchased Millipore, Inc. (KinaseProfiler service)", "procedure,_shortened": "as §1"}, "[31]": {"biological_target": "T31, EphA1 (Homo sapiens, UniProt P21709)", "T31 construct": "purchased Millipore, Inc. (KinaseProfiler service)", "procedure,_shortened": "as §1"}, "[32]": {"biological_target": "T32, CDK5/p25 (Homo sapiens, UniProt Q00535)", "T32 construct": "purchased Millipore, Inc. (KinaseProfiler service)", "procedure,_shortened": "as §1"}, "[33]": {"biological_target": "T33, Hck (Homo sapiens, UniProt P08631)", "T33 construct": "purchased Millipore, Inc. (KinaseProfiler service)", "T33 sequence (P08631 whole entry)": "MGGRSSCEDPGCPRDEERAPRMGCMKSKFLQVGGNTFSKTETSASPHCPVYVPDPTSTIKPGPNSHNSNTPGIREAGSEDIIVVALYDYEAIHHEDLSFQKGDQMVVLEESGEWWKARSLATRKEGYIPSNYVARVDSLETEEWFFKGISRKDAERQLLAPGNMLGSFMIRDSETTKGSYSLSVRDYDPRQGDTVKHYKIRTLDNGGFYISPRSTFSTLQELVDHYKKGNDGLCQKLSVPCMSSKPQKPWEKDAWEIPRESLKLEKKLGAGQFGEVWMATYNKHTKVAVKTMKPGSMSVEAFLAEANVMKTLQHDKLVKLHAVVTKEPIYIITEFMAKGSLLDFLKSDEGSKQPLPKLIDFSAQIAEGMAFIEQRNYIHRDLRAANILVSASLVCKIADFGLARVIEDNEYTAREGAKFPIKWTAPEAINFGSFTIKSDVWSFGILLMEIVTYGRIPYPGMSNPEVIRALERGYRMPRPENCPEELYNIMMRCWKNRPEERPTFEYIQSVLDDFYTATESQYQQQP", "procedure,_shortened": "as §1"}, "[34]": {"biological_target": "T34, ARK5 (Homo sapiens, UniProt O60285)", "T34 construct": "purchased Millipore, Inc. (KinaseProfiler service)", "procedure,_shortened": "as §1"}, "[35]": {"biological_target": "T35, TAO2 (Homo sapiens, UniProt Q9UL54)", "T35 construct": "purchased Millipore, Inc. (KinaseProfiler service)", "procedure,_shortened": "as §1"}, "[36]": {"biological_target": "T36, TrkB (Homo sapiens, UniProt Q16620)", "T36 construct": "purchased Millipore, Inc. (KinaseProfiler service)", "procedure,_shortened": "as §1"}, "[37]": {"biological_target": "T37, MYLK (Homo sapiens, UniProt Q15746)", "T37 construct": "purchased Millipore, Inc. (KinaseProfiler service)", "procedure,_shortened": "as §1"}, "[38]": {"biological_target": "T38, CDK5/p35 (Homo sapiens, UniProt Q00535)", "T38 construct": "purchased Millipore, Inc. (KinaseProfiler service)", "procedure,_shortened": "as §1"}, "[39]": {"biological_target": "T39, Flt3 (Homo sapiens, UniProt P36888)", "T39 construct": "purchased Millipore, Inc. (KinaseProfiler service)", "procedure,_shortened": "as §1"}, "[40]": {"biological_target": "T40, MAPKAP-K2 (Homo sapiens, UniProt P49137)", "T40 construct": "purchased Millipore, Inc. (KinaseProfiler service)", "T40 sequence (P49137 whole entry)": "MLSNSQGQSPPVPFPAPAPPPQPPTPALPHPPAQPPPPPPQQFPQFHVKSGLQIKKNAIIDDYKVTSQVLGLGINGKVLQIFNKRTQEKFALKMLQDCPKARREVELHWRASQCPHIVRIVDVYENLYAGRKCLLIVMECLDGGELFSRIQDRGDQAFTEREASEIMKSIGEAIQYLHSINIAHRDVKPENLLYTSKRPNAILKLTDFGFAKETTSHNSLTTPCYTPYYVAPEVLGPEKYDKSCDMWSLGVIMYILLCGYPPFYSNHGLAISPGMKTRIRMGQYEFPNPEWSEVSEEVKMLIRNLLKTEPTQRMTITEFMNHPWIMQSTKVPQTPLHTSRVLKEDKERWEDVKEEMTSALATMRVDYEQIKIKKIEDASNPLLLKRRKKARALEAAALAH", "procedure,_shortened": "as §1"}, "[41]": {"biological_target": "T41, Bmx (Homo sapiens, UniProt P51813)", "T41 construct": "purchased Millipore, Inc. (KinaseProfiler service)", "procedure,_shortened": "as §1"}}, "data": [{"smiles": "COCCN1C[C@@H](NC(=O)Nc2c(C)c(-c3cnc(C)nc3)nn2-c2ccccc2)[C@H](c2cccc(F)c2)C1", "note": "[Compound 1, 1-((3S,4R)-4-(3-fluorophenyl)-1-(2-methoxyethyl)pyrrolidin-3-yl)-3-(4-methyl-3-(2-methylpyrimidin-5-yl)-1-phenyl-1H-pyrazol-5-yl)urea]", "values": [{"measurement": "Avg POC", "setting": "[1]", "result": 84.5, "unit": "POC"}, {"measurement": "Avg POC", "setting": "[2]", "result": 94, "unit": "POC"}, {"measurement": "Avg POC", "setting": "[3]", "result": 105.5, "unit": "POC"}, {"measurement": "Avg POC", "setting": "[4]", "result": 101, "unit": "POC"}, {"measurement": "Avg POC", "setting": "[5]", "result": 99, "unit": "POC"}, {"measurement": "Avg POC", "setting": "[6]", "result": 104, "unit": "POC"}, {"measurement": "Avg POC", "setting": "[7]", "result": 129, "unit": "POC"}, {"measurement": "Avg POC", "setting": "[8]", "result": 106.5, "unit": "POC"}, {"measurement": "Avg POC", "setting": "[9]", "result": 82.5, "unit": "POC"}, {"measurement": "Avg POC", "setting": "[10]", "result": 104, "unit": "POC"}, {"measurement": "Avg POC", "setting": "[11]", "result": 96.5, "unit": "POC"}, {"measurement": "Avg POC", "setting": "[12]", "result": 94.5, "unit": "POC"}, {"measurement": "Avg POC", "setting": "[13]", "result": 116, "unit": "POC"}, {"measurement": "Avg POC", "setting": "[14]", "result": 115.5, "unit": "POC"}, {"measurement": "Avg POC", "setting": "[15]", "result": 115.5, "unit": "POC"}, {"measurement": "Avg POC", "setting": "[16]", "result": 98.5, "unit": "POC"}, {"measurement": "Avg POC", "setting": "[17]", "result": 95, "unit": "POC"}, {"measurement": "Avg POC", "setting": "[18]", "result": 114, "unit": "POC"}, {"measurement": "Avg POC", "setting": "[19]", "result": 106, "unit": "POC"}, {"measurement": "Avg POC", "setting": "[20]", "result": 102, "unit": "POC"}, {"measurement": "Avg POC", "setting": "[21]", "result": 99, "unit": "POC"}, {"measurement": "Avg POC", "setting": "[22]", "result": 97.5, "unit": "POC"}, {"measurement": "Avg POC", "setting": "[23]", "result": 104.5, "unit": "POC"}, {"measurement": "Avg POC", "setting": "[24]", "result": 102.5, "unit": "POC"}, {"measurement": "Avg POC", "setting": "[25]", "result": 110.5, "unit": "POC"}, {"measurement": "Avg POC", "setting": "[26]", "result": 112, "unit": "POC"}, {"measurement": "Avg POC", "setting": "[27]", "result": 110.5, "unit": "POC"}, {"measurement": "Avg POC", "setting": "[28]", "result": 95, "unit": "POC"}, {"measurement": "Avg POC", "setting": "[29]", "result": 103, "unit": "POC"}, {"measurement": "Avg POC", "setting": "[30]", "result": 104, "unit": "POC"}, {"measurement": "Avg POC", "setting": "[31]", "result": 94.5, "unit": "POC"}, {"measurement": "Avg POC", "setting": "[32]", "result": 115, "unit": "POC"}, {"measurement": "Avg POC", "setting": "[33]", "result": 108.5, "unit": "POC"}, {"measurement": "Avg POC", "setting": "[34]", "result": 104.5, "unit": "POC"}, {"measurement": "Avg POC", "setting": "[35]", "result": 100, "unit": "POC"}, {"measurement": "Avg POC", "setting": "[36]", "result": 1.5, "unit": "POC"}, {"measurement": "Avg POC", "setting": "[37]", "result": 106.5, "unit": "POC"}, {"measurement": "Avg POC", "setting": "[38]", "result": 97, "unit": "POC"}, {"measurement": "Avg POC", "setting": "[39]", "result": 102, "unit": "POC"}, {"measurement": "Avg POC", "setting": "[40]", "result": 115, "unit": "POC"}, {"measurement": "Avg POC", "setting": "[41]", "result": 91.5, "unit": "POC"}]}]}
